Literature values in patent publication US8334001B2, “Composition comprising mucilaginous polysaccharides derived from aloe barbadensis and method for obtaining same and use thereof” (Pharmabrand S.A., priority 2007, dated 2012).
Where two headings read alike, the source gives them in different places.

Substance | activation of the necrosis factor, kappa B (necrosis factor, kappa B; concentration of 200 μg/ml) | effect on TNF-alfa (TNF-alfa) | activation of the necrosis factor, kappa B (necrosis factor, kappa B; concentrations of only 0.015% of the aloeride)
acemannan | produces an activation |  | 
aloeride |  | increases | the effect is shown
